From patent publication US20080221039A1, “Kinin Antagonists For Treating Bladder Dysfunction” (priority 2005, published 2008)
Entries after “also recorded” stand apart in the source; their conditions may differ. Square brackets hold non-standard residues; d marks the D form. Peptide text beside a SMILES is read from it. d2Nal = N[C@H](Cc1ccc2ccccc2c1)C(=O)O

Columns and labels:
[1] = system: rat model of acetic acid induced bladder irritation; experiment: Rat model of acetic acid induced bladder irritation (Example 2); type: in vivo; settings: for intercontraction interval (ICI): Example 2, FIG. 1, i.v. after acetic acid, Aspirin 10 mg/kg; for intercontraction interval (ICI) / bladder capacity: Icatibant 0.2, 1 and 5 mg/kg, Oxybutynin 1 mg/kg, R-715 1 mg/kg; for bladder capacity: Example 2, FIG. 2, i.v. after acetic acid, aspirin 10 mg/kg; for micturition pressure: Example 2, FIG. 3, after start of acetic acid infusion; for bladder capacity, pre-treatment: Example 2, pre-treatment prior to acetic acid application
Method: Groups of 5 female Wistar rats weighing 250 to 300 g anesthetized with urethane 1.2 g/kg i.p. in 5 ml/kg were used. A polyethylene catheter (PE50) was implanted into the bladder for saline or acetic acid infusion through a 3 way stopcock to which a pressure transducer is connected for measurements of bladder pressure (mm Hg). Saline at 37° C. was infused into the bladder at a constant rate until cystometrography stabilized in 60 minutes. Subsequently, 0.2% acetic acid was infused into the urinary bladder. […] The following parameters were measured continuously during baseline and for up to 1 hour post-dosing: bladder capacity (μl), intercontraction interval (ICI, in minutes, time between two voiding cycles), micturition pressure (mm Hg), micturition volume (ml, derived from the weight of excreted urine measured by a balance placed below the rat) and blood pressure (mm Hg). [table] Paired Student's test was applied for comparison between the time before (baseline) and after test substance or with vehicle treatment. To signify differences between test substance and vehicle control groups, Dunnett's test or unpair Student t test was used. Differences are considered significant at P<0.05 level.

[2] = system: rat model of acetic acid induced bladder irritation; experiment: Rat model of acetic acid induced bladder irritation (Example 1); type: in vivo
Method: Groups of 5 female Wistar rats weighing 250 to 300 g anesthetized with urethane 1.2 g/kg i.p. in 5 ml/kg were used. A polyethylene catheter (PE50) was implanted into the bladder for saline or acetic acid infusion through a 3 way stopcock to which a pressure transducer is connected for measurements of bladder pressure (mm Hg). Saline at 37° C. was infused into the bladder at a constant rate until cystometrography becomes stable. Thereafter, instillation of 0.2% acetic acid into the urinary bladder was initiated. […] The following parameters were measured continuously for 1 hour after treatment was started: intercontraction interval (ICI, minutes, defined as the time between two voiding cycles), threshold pressure (mmHg), bladder capacity (ml), micturition volume (ml), and micturition pressure (mmHg). Micturition volume is derived from the weight of excreted urine measured by a balance placed below the rat.
Paired Student's test was applied for comparison between the time before and after test substance or with vehicle treatment. To signify differences between test substance and vehicle control group, Dunnett's test was used. Differences are considered significant at P<0.05.

[3] = target: T1, guinea pig B2 receptors (Cavia porcellus, UniProt O70526); settings: human INT407 cells; cited from earlier work
T1 construct: host or cells: human INT407 cells
T1 sequence (O70526 1-372): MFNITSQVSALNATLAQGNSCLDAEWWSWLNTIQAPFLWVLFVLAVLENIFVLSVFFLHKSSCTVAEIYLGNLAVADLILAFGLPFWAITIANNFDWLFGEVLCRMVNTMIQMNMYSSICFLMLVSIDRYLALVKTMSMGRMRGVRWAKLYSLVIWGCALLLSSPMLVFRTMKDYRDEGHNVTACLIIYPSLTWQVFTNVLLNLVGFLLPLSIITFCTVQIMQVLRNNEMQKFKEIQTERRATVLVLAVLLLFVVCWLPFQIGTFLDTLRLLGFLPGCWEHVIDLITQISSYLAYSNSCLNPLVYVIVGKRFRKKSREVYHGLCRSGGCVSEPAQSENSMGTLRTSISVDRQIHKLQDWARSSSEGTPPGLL

Row | SMILES | intercontraction interval (ICI) [1] | bladder capacity [1] | micturition pressure [1] | bladder capacity, pre-treatment [1] | further results
1 | CCN(CC)CC#CCOC(=O)C(O)(c1ccccc1)C1CCCCC1 (stereo not drawn) [Oxybutynin, 4-diethylaminio-2-butynyl phenylcyclohexyglycolate] | if any, only slight positive effects | no significant effects | – | – | –
2 | CC[C@H](C)[C@H](NC(=O)[C@@H](Cc1ccc2ccccc2c1)NC(=O)[C@H](CO)NC(=O)[C@H](Cc1ccccc1)NC(=O)CNC(=O)[C@@H]1CCCN1C(=O)[C@@H]1CCCN1C(=O)[C@H](CCCNC(=N)N)NC(=O)[C@H](CCCCN)NC(C)=O)C(=O)O [R-715, H-Ac-Lys-Arg-Pro-Pro-Gly-Phe-Ser-D-Nal-Ile-OH] (Ac-KRPPGFS[d2Nal]I-OH) | becomes effective over the study time as well but positive effects on ICI are delayed; also recorded: doubling | increases the bladder capacity until reaching the baseline levels; also recorded: tripling | – | – | –
3 | CC[C@H](C)[C@H](NC(=O)[C@@H](Cc1ccc2ccccc2c1)NC(=O)[C@H](CO)NC(=O)[C@H](Cc1ccccc1)NC(=O)CNC(=O)[C@@H]1CCCN1C(=O)[C@@H]1CCCN1C(=O)[C@H](CCCN=C(N)N)NC(=O)[C@H](CCCCN)NC(C)=O)C(=O)O [R-715, H-Ac-Lys-Arg-Pro-Pro-Gly-Phe-Ser-D-Nal-Ile-OH] (Ac-KRPPGFS[d2Nal]I-OH) | – | – | without any change | – | –
4 | CC(=O)Oc1ccccc1C(=O)O [Aspirin] | increases | increases the bladder capacity until reaching the baseline levels | – | – | –
5 | NC(N)=NCCC[C@@H](N)C(=O)N[C@@H](CCCN=C(N)N)C(=O)N1CCC[C@H]1C(=O)N1C[C@H](O)C[C@H]1C(=O)NCC(=O)N[C@@H](Cc1cccs1)C(=O)N[C@@H](CO)C(=O)N1Cc2ccccc2C[C@@H]1C(=O)N1[C@H](C(=O)N[C@@H](CCCN=C(N)N)C(=O)O)C[C@@H]2CCCC[C@@H]21 [Icatibant, H-D-Arg-Arg-Pro-Hyp-Gly-Thi-Ser-D-Tic-Oic-Arg-OH] | increases; also recorded: doubling | increases the bladder capacity until reaching the baseline levels; also recorded: tripling | without any change | completely blocks the acetic acid induced decrease of bladder capacity | intercontraction interval (ICI) ([2]; Example 1, FIG. 1, in comparison to the vehicle group, i.v. after start of acetic acid infusion): dose-dependently increases; bladder capacity ([2]; Example 1, FIG. 2, in comparison to the vehicle group, i.v. after start of acetic acid infusion): dose-dependently increases; micturition pressure ([2]; Example 1, FIG. 3, i.v. after start of acetic acid infusion): no decrease; bladder capacity ([2]; Example 1 summary, 1 mg/kg): doubling; interval between two micturition contractions ([2]; Example 1 summary, 1 mg/kg): doubling; micturition pressure ([2]; Example 1 summary, 1 mg/kg): without any change; reversal of acetic acid induced detrusor instabilities ([2]; rat, 1 mg/kg i.v.): able to reverse; inhibition of BK-mediated inositol phosphate generation [3]: efficiently inhibited; intercontraction interval (ICI), pre-treatment ([1]; Example 2, 1 mg/kg i.v. 30 minutes prior to intravesical acetic acid infusion): strongly inhibits decrease of ICI; lowest dose at which maximal effects on ICI were reached ([1]; Example 2, i.v. after acetic acid): 0.2 mg/kg; acetic acid induced bladder dysfunction, pre-treatment ([1]; Example 2 summary, pre-treatment before acetic acid): complete inhibition
6 | COc1cc(CNC(=O)CCCC/C=C/C(C)C)ccc1O [Capsaicin] | – | – | – | completely blocks the acetic acid induced decrease of bladder capacity | intercontraction interval (ICI), Capsaicin pre-treatment ([1]; Example 2, 25 mg/kg and 50 mg/kg s.c., 4 days prior to experiment): inhibition of the acetic acid—triggered ICI—decrease
